Source: ChEMBL document CHEMBL1201862, “PubChem BioAssay data set” (2004)
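Briefly, cells in 96-well plates were exposed to five compound concentrations for 48 h, and endpoints were estimated by linear interpolation. GI50 marks 50% less growth.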 Active and inactive are the calls of the source. Rule as the data show it: active = GI50 up to about 1.1 µM and inactive = higher.

What was measured:
Experiment in all cases: NCI-60 cell line screen, 48 h
[1] = system: A549
[2] = system: ACHN
[3] = system: EKVX
[4] = system: HCC 2998
[5] = system: HCT-116
[6] = system: HL-60
[7] = system: HT-29
[8] = system: IGROV-1
[9] = system: M14
[10] = system: NCI-H23
[11] = system: SF-295
[12] = system: SK-MEL-2
[13] = system: SK-MEL-5
[14] = system: SK-OV-3
[15] = system: UACC-62

Measured: GI50

O=C(Nc1nccs1)c1cc(C2=CC=CC([N+](=O)[O-])C=C2)nc(S)n1 (centres undefined)
inactive: [1] > 100 µM | [2] > 100 µM | [3] > 100 µM | [4] > 100 µM | [5] > 100 µM | [6] > 100 µM | [7] > 100 µM | [8] > 100 µM | [9] > 100 µM | [10] > 100 µM | [11] > 100 µM | [12] > 100 µM | [13] > 100 µM | [14] > 100 µM | [15] > 100 µM

O=C(CC(=O)C1CCOC1=O)C(=O)Nc1ccc(Cl)cc1Cl (centres undefined)
inactive: [1] > 100 µM | [2] > 100 µM | [3] > 100 µM | [4] > 100 µM | [5] > 100 µM | [6] > 100 µM | [7] > 100 µM | [8] > 100 µM | [9] > 100 µM | [10] > 100 µM | [11] > 100 µM | [12] > 100 µM | [13] > 100 µM | [14] > 100 µM | [15] > 100 µM

CCOc1ccccc1NC(=O)CCC(=O)OC
inactive: [1] > 100 µM | [2] > 100 µM | [3] > 100 µM | [4] > 100 µM | [5] > 100 µM | [6] > 51.8 µM | [7] > 100 µM | [8] > 100 µM | [9] > 100 µM | [10] > 100 µM | [11] > 100 µM | [12] > 100 µM | [13] > 100 µM | [14] > 100 µM | [15] > 100 µM

C/C=C/C1(C)/C(=N\O)C(C)(CCC)C(=O)N1O (centres undefined)
inactive: [1] > 100 µM | [2] > 100 µM | [3] > 100 µM | [4] > 100 µM | [5] > 100 µM | [6] > 100 µM | [7] > 100 µM | [8] > 100 µM | [9] > 100 µM | [10] > 100 µM | [11] > 100 µM | [12] > 100 µM | [13] > 100 µM | [14] > 100 µM | [15] > 100 µM

CC1C[C@H](OC(N)=O)C(C)CC1=O (some centres undefined)
inactive: [1] > 100 µM | [2] > 100 µM | [3] > 100 µM | [4] > 100 µM | [5] > 100 µM | [6] > 100 µM | [7] > 100 µM | [8] > 100 µM | [9] > 100 µM | [10] > 100 µM | [11] > 100 µM | [12] > 100 µM | [13] > 100 µM | [14] > 100 µM | [15] > 100 µM

C/C(CCc1ccccc1)=N\NC(N)=S
inactive: [1] > 100 µM | [2] > 100 µM | [3] 72.4 µM | [4] > 100 µM | [5] > 100 µM | [6] > 100 µM | [7] 27.8 µM | [8] > 100 µM | [9] > 100 µM | [10] > 100 µM | [11] > 100 µM | [12] > 100 µM | [13] 95.3 µM | [14] > 100 µM | [15] > 100 µM

O=C(Nc1ccc(Cl)c(Cl)c1)C(=O)C(C(=O)c1ccccc1-c1ccccc1)C1OC(=O)c2ccccc21 (centres undefined)
inactive: [1] 21.3 µM | [2] 31.3 µM | [3] 20.8 µM | [4] 14.5 µM | [5] 10.5 µM | [6] 10.9 µM | [7] 29.8 µM | [8] 24.2 µM | [9] 14.7 µM | [10] 10.6 µM | [11] 17.1 µM | [12] 11.4 µM | [13] 15.1 µM | [14] 28.5 µM | [15] 15.8 µM

C/C(CC(=O)Nc1cccc(Cl)c1C)=N\NC(N)=S
inactive: [1] > 100 µM | [3] > 100 µM | [4] > 100 µM | [5] > 100 µM | [6] > 100 µM | [7] > 100 µM | [8] > 100 µM | [9] > 100 µM | [10] > 100 µM | [11] > 100 µM | [12] > 100 µM | [13] > 100 µM | [14] > 100 µM | [15] > 100 µM

Nc1nc(Cl)cc(NCCCCCCNc2cc(Cl)nc(N)n2)n1
inactive: [1] 60.7 µM | [2] 2.88 µM | [3] > 100 µM | [4] > 100 µM | [5] 30.7 µM | [6] 15.2 µM | [7] > 100 µM | [8] > 100 µM | [9] > 100 µM | [10] 54.5 µM | [11] 28.1 µM | [12] 87.9 µM | [13] 13.1 µM | [14] > 100 µM | [15] 12 µM

N#C/C(=C\c1ccccc1)C(NO)Nc1ccccc1 (centres undefined)
inactive: [1] > 100 µM | [2] 72.9 µM | [3] > 100 µM | [4] > 100 µM | [5] 40.7 µM | [6] > 100 µM | [7] 72.9 µM | [8] 57.3 µM | [9] > 100 µM | [10] > 100 µM | [11] > 100 µM | [12] > 100 µM | [13] 53.6 µM | [14] > 100 µM | [15] 42.1 µM
